Values quoted from earlier work, collected in US20070298069A1, “Medical devices for release of low solubility therapeutic agents” (Boston Scientific Scimed, Inc., priority 2006, published 2007).

Test system: most gram positive and gram negative aerobic and anaerobic bacteria, some yeast and fungi
Details: in most organisms tested

In the case of `Oc1cc(Cl)ccc1Oc1ccc(Cl)cc1Cl` [triclosan], the MIC is listed as under 0.3 ppm.
